# Test system: ATF4 translation (ISR pathway activation)
# Test: ATF4 Nano Luciferase reporter integrated stress response (ISR) assay in H4 ATF4-NLuc (clone 17) cells
# Format: cell-based, human
# Conditions: H4 ATF4-NLuc (clone 17) cells; compounds 30 minutes at 37 degree Celsius, then 50 um sodium arsenite for 6 additional hours; luminescence readout; read-out: IC50
# Text: Cellular stress leads to activation of the integrated stress response pathway through one of four eukaryotic initiation factor 2α kinases and halts global translation, while allowing for the translation of select transcripts like ATF4 (activating transcription factor 4) that are important for the response to cellular stress. During normal conditions, small open reading frames (ORFs) in the 5′ UTR of ATF4 occupy the ribosome and prevent translation of the coding sequence of ATF4. During stress conditions however, the ribosome scans past these upstream ORFs and preferentially begins translation at the coding sequence of ATF4. In this way, the translation, and thus protein level of ATF4 is a readout of ISR pathway activation. Thus, a fusion of the uORFs and the beginning of the coding sequence of ATF to a common cellular reporter like nano-luciferase allows for a sensitive and high-throughput readout of ISR pathway activity.
# Compounds as provided herein were tested in the following assay. The ATF4 Nano Luciferase reporter was constructed by fusing the human full length 5′ untranslated region (5′-UTR) and a small portion of the coding sequence of the ATF4 gene upstream of the Nano Luciferase (NLuc) coding sequence lacking it's start codon. Specifically, nucleotides +1 through +364 (relative to the transcriptional start site) of ATF4 transcript variant 2 (NCBI NM_182810.2) flanked 5′ by EcoRI and 3′ by BamHI restriction enzyme sites were synthesized and cloned into the EcoRI/BamHI cloning sites of pLVX-EF1a-IRES-Puro lentivirus vector (Clontech). […]. H4 cells were selected with […] Puromycin, and clonal cell lines generated by limiting dilution. We utilized this cell line to generate an integrated stress response (ISR) assay to evaluate the activity of ISR pathway inhibitors via luminescence readout. The H4 ATF4-NLuc (clone 17) cell line is plated at a density of […] in 96-well or 384-well respectively in DMEM+10% fetal bovine serum. 24-hours later test compounds diluted in dimethyl sulfoxide (DMSO) are added for 30 minutes at 37 degree Celsius, followed by ISR pathway activation with 50 um sodium arsenite aqueous solution for 6 additional hours. Nano Glo luciferase reagent (N1150, Promega) is added according to manufacturer instructions and the luminescence signal (corresponding to the level of ATF4 translation and thus ISR pathway activation) is read with a standard plate reader with luminescence detection capabilities.
# In the table below, activity of the tested compounds is provided in Table 3 as follows: +++=IC50<1 μM; ++=IC50 1-10 μM; +=IC50>10 μM.
row,SMILES,IC50
1,"O=C(COc1ccc(Cl)cc1)NC12CC(NC(=O)COC3CC(C(F)(F)F)C3)(C1)C2 (single isomer, unassigned) [3 (second eluting isomer), 2-(4-chlorophenoxy)-N-(3-(2-(3-(trifluoromethyl)cyclobutoxy)acetamido)bicyclo[1.1.1]pentan-1-yl)acetamide]",< 1000 nM
2,"O=C(COc1ccc(Cl)c(F)c1)NC12CC(NC(=O)COC3CC(C(F)(F)F)C3)(C1)C2 (single isomer, unassigned) [12 (second eluting isomer), 2-(4-chloro-3-fluorophenoxy)-N-(3-(2-(3-(trifluoromethyl)cyclobutoxy)acetamido)bicyclo[1.1.1]pentan-1-yl)acetamide]",< 1000 nM
3,"O=C(COc1ccc(Cl)c(F)c1)NC1CC(OCCOC2CC(OC(F)(F)F)C2)C1 (single isomer, unassigned) [42 (isomer 2), 2-(4-chloro-3-fluoro-phenoxy)-N-[3-[2-[3-cis-(trifluoromethoxy)cyclobutoxy]ethoxy]-trans-cyclobutyl]acetamide]",< 1000 nM

# Same assay, conditions: Homo sapiens, 0.5 h
row,SMILES,IC50
1,"O=C(COc1ccc(Cl)cc1)NC12CC(NC(=O)COC3CCC3)(C1)C2 [Example 1, 2-(4-chlorophenoxy)-N-(3-(2-cyclobutoxyacetamido)bicyclo[1.1.1]pentan-1-yl)acetamide]",< 1000 nM

# Same assay, conditions: Homo sapiens, 0.5 h; H4 ATF4-NLuc (clone 17) cells; compounds 30 minutes at 37 degree Celsius, then 50 um sodium arsenite for 6 additional hours; luminescence readout; read-out: IC50
row,SMILES,IC50
1,"O=C(COc1ccc(Cl)cc1)NC12CC(NC(=O)COC3CC(C(F)(F)F)C3)(C1)C2 (single isomer, unassigned) [3 (first eluting isomer), 2-(4-chlorophenoxy)-N-(3-(2-(3-(trifluoromethyl)cyclobutoxy)acetamido)bicyclo[1.1.1]pentan-1-yl)acetamide]",< 1000 nM
2,"O=C(COc1ccc(Cl)c(F)c1)NC12CC(NC(=O)COC3CC(C(F)(F)F)C3)(C1)C2 (single isomer, unassigned) [12 (first eluting isomer), 2-(4-chloro-3-fluorophenoxy)-N-(3-(2-(3-(trifluoromethyl)cyclobutoxy)acetamido)bicyclo[1.1.1]pentan-1-yl)acetamide]",< 1000 nM
3,"O=C(COc1ccc(Cl)c(F)c1)NC1CC(OCCOC2CC(OC(F)(F)F)C2)C1 (single isomer, unassigned) [42 (isomer 1), 2-(4-chloro-3-fluoro-phenoxy)-N-[3-[2-[3-cis-(trifluoromethoxy)cyclobutoxy]ethoxy]-cis-cyclobutyl]acetamide]",< 1000 nM
4,"O=C(COC1CC(OC(F)(F)F)C1)NC12CC(NC(=O)[C@H]3CCc4cc(C(F)(F)F)ccc4O3)(C1)C2 (single isomer, unassigned) [Example 72 (first eluting isomer), N-(3-(2-(3-cis-(trifluoromethoxy)cyclobutoxy)acetamido)bicyclo[1.1.1]pentan-1-yl)-6-(trifluoromethyl)chroman-2-carboxamide]",< 1000 nM
5,"O=C(COC1CC(OC(F)(F)F)C1)NC12CC(NC(=O)[C@@H]3CCc4cc(C(F)(F)F)ccc4O3)(C1)C2 (single isomer, unassigned) [Example 72 (second eluting isomer), N-(3-(2-(3-cis-(trifluoromethoxy)cyclobutoxy)acetamido)bicyclo[1.1.1]pentan-1-yl)-6-(trifluoromethyl)chroman-2-carboxamide]",< 1000 nM
6,"O=C(COc1ccc(Cl)c(F)c1)NC1CCN(c2ccnc(C3CC(OC(F)(F)F)C3)n2)CC1 [58 (cis isomer), 2-(4-chloro-3-fluorophenoxy)-N-(1-(2-(3-cis-(trifluoromethoxy)cyclobutyl)pyrimidin-4-yl)piperidin-4-yl)acetamide]",< 1000 nM
7,"O=C(COc1ccc(Cl)cc1)NC12CC(NC(=O)COC3CC(F)(F)C3)(C1)C2 [Example 2, 2-(4-chlorophenoxy)-N-(3-(2-(3,3-difluorocyclobutoxy)acetamido)bicyclo[1.1.1]pentan-1-yl)acetamide]",< 1000 nM
8,"O=C(COc1ccc(Cl)cc1)NC12CC(NC(=O)COC3CC4(CCC4)C3)(C1)C2 [Example 4, 2-(4-chlorophenoxy)-N-(3-(2-(spiro[3.3]heptan-2-yloxy)acetamido)bicyclo[1.1.1]pentan-1-yl)acetamide]",< 1000 nM
